Tests used:
[1] = system: HFL-1; assay: Cytotoxicity against normal cell line HFL-1; type: cell-based; details: Homo sapiens, HFL1, 24 h, mean ± standard error
Description: (§1) According to previous reports regarding the cytotoxic features of a numerous array of benzochromene scaffolds, compounds 4a − z have been elected to explore their cytotoxic ability against three tumour cell lines, including HCT-116 (colon cancer), MCF-7 (breast cancer), and HepG-2 (hepatocellular cancer), and employing the 3–(4,5-dimethylthiazol-2-yl)-2,5-diphenyl tetrazolium bromide (MTT) colorimetric assay as described in literature. Judges choice of such cell lines has been stimulated by the acknowledged antitumor performance of a substantial number of 1H-benzo[f]chromene and 4H-benzo[h]chromene molecules towards the asserted cell lines. […] Moreover, benzochromene derivatives with highly cytotoxic behaviour, 4a − d, 4g, 4i, 4k, 4n, 4q, 4 u, and 4w, are subjected to further inspection against ADR-resistant human breast cancer cells (MCF-7/ADR) and the two normal cell lines, HFL-1 and human diploid fibroblasts (WI-38). […] Also, the results are illustrated in Table 4.
(§2) The cytotoxic activity was appraised, using the 3–(4,5-dimethylthiazol-2-yl)-2,5-diphenyl-tetrazolium bromide (MTT) colorimetric assay, as reported previously[57] and ELISA assay for MCF-7/ADR[75].

[2] = system: MCF-7/ADR; assay: Cytotoxicity against ADR-resistant breast cancer cells; type: cell-based, human; details: 24 h exposure, mean ± standard error
Description: as §1, §2

[3] = system: HCT-116; assay: MTT cell viability assay, HCT-116; type: cell-based; details: Homo sapiens, 24 h incubation, mean ± standard error
Description: as §1, §2

[4] = system: P-gp; assay: P-gp content in MCF-7/ADR cell lysate by ELISA; type: cell-based, human; details: MCF-7/ADR lysate; for %Reduction of P-gp expression / IC50: 48 h; for IC50 at 48 h: human, MCF-7/ADR cells (cell lysate)
Method: P-gp pumps multiple types of drugs out of the cell, using energy generated from adenosine triphosphate (ATP), and confers MDR on cancer cells. It is one of the noteworthy problems in malignant tumour clinical therapeutics. […].
The content of P-gp in the MCF-7/ADR cell lysates after incubation with varying conc. (12.5–100 µM) of tested compounds 4b, 4c, 4d, 4q, and 4w following exposure for 48 h. was determined using commercial human P-gp ELISA Kit (MBS2506188, MyBioSource Inc., San Diego, CA). Absorption was recorded at 450 nm with a Spectramax Gemini fluorescence microplate reader (Molecular Devices, Sunnyvale, CA).

[5] = target: T1, P-gp (Homo sapiens, UniProt P08183); assay: Rhodamine 123 accumulation assay in MCF-7/ADR cells; type: cell-based; details: 4 h compound, then 5.25 μM Rho123 30 min
T1 construct: endogenous in cells; host or cells: MCF-7/ADR (Adriamycin-resistant human breast cancer cells)
Method: Furthermore, the reversion of P-gp mediated multidrug resistance may be achieved by down-regulation of P-gp expression and or inhibition of P-gp efflux function.
Briefly, resistant cancer cells were harvested, washed twice, and counted. […] of each well was measured using Spectramax Gemini fluorescence microplate reader (Molecular Devices, Sunnyvale, CA). The total content of Rhodamine in each sample was determined by comparison with a Rhodamine standard curve.

[6] = system: MCF-7; assay: MTT cell viability assay, MCF-7; type: cell-based; details: Homo sapiens, MCF7, 24 h incubation, mean ± standard error
Description: as §1
(§3) The tumour cell lines MCF-7, HepG-2, and […] were obtained from the American Type Culture Collection (ATCC, Rockville, MD). The cells were grown on RPMI-1640 medium supplemented with 10% inactivated foetal calf serum and 50 µg/mL gentamycin. The cells were maintained at 37 °C in a humidified atmosphere with 5% CO2 and were subculture two to three times a week.
as §2

[7] = system: WI-38; assay: Cytotoxicity against normal cell line WI-38; type: cell-based; details: Homo sapiens, 24 h, mean ± standard error
Description: as §1, §2

[8] = system: HepG-2; assay: MTT cell viability assay, HepG-2; type: cell-based; details: Homo sapiens, HepG2, 24 h incubation, mean ± standard error
Description: as §1, §3, §2

[9] = system: MCF-7/ADR cells; assay: Annexin V-FITC/PI apoptosis assay; type: cell-based, human; details: IC50 value, 24 h, untreated cells 2%
Description: Several lines of evidence indicate that many anticancer compounds exerted their effects by blocking the cell cycle progression, by inducing apoptosis, or the combined effect of both[67]. Also, P-gp inhibits apoptosis by preventing the release of cytochrome c which is mediated by the intrinsic mitochondrial pathway. To further assess the pivotal relation of the newly synthesised MCF-7/ADR anticancer compounds and apoptosis, phosphatidylserine (PS) translocation to the cell membrane as a marker for apoptosis was measured by the means of the Annexin V/PI double staining flow cytometric assay.
Apoptosis assay was performed with an Annexin V-FITC/PI double staining apoptosis detection kit (K101, Biovison, Milpitas, CA) using a flow cytometer. MCF-7/ADR cancer cells treated with different newly synthesised compounds (IC50 value) were harvested by trypsinization, washed twice with 4 °C PBS, and re-suspended in binding buffer. Annexin V-FITC and PI solutions were then added to stain the cells before analysis by flow cytometry A minimum of 10,000 cells per sample were acquired. Annexin V-FITC binding (FL1) and PI (FL2) were analysed using Cell Quest Pro software (BD Biosciences).

[10] = Homo sapiens, NCI/ADR-RES, 24 h

T1 sequence (P08183 whole entry): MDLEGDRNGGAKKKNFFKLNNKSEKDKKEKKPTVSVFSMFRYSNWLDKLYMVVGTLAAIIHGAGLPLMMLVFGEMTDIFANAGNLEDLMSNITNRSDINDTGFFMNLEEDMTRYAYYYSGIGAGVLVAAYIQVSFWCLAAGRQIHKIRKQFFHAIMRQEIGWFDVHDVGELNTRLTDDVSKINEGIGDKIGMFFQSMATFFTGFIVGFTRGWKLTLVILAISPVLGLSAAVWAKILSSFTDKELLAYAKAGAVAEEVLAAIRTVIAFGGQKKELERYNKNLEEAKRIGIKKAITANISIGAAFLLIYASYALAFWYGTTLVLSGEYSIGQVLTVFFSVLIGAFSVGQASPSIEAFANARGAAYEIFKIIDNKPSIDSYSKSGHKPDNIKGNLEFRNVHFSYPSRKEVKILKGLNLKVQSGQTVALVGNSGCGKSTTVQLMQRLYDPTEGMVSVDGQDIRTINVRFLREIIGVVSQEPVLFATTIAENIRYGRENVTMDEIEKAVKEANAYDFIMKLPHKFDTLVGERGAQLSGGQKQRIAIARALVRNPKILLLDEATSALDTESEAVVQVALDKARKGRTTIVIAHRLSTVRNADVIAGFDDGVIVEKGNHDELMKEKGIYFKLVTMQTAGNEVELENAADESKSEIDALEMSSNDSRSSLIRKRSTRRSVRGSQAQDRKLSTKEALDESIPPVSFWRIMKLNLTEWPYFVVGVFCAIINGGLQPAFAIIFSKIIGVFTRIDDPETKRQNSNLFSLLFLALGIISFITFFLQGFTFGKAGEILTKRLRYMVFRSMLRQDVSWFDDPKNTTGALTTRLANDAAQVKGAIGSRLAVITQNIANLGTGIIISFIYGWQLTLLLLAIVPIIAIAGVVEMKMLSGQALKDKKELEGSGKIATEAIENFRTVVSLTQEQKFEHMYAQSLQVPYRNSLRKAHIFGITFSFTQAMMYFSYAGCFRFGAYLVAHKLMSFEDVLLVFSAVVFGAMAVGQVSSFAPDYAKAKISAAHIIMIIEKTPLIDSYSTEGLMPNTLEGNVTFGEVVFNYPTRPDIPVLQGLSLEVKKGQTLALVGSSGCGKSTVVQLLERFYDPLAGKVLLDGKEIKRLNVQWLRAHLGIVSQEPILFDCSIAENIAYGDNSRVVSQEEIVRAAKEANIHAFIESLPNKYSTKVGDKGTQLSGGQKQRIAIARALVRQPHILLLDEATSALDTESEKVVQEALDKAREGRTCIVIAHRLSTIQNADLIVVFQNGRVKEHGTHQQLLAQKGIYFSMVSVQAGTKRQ

IC50 [3]	IC50 [4]	IC50 at 48 h [4]	IC50 [5]	melting point	IC50 [6]	SMILES	IC50 [1]	IC50 [2]	IC50 [2, 10]	%Reduction of P-gp expression ([4]; Conc. 12.5 µM)	%Reduction of P-gp expression ([4]; Conc. 25 µM)	%Reduction of P-gp expression ([4]; Conc. 50 µM)	%Reduction of P-gp expression ([4]; Conc. 100 µM)	IC50 [7]	IC50 [8]	total apoptosis [9]
1.3 ± 0.1 µM	–	45.3 µM	39.1 µM	255 to 256 °C	2.3 ± 0.1 µM	COc1ccc2ccc3c(c2c1)C(c1ccc(Cl)c(Cl)c1)C(C#N)=C(N)O3 (centres unmarked) [4q, 3-Amino-1–(3,4-dichlorophenyl)-9-methoxy-1H-benzo[f]chromene-2-carbonitrile]	75.8 ± 0.2 µM	13.4 ± 0.4 µM	10.9 to 15.5 µM	19%	32%	51%	76%	72.8 ± 0.4 µM	1.5 ± 0.1 µM	–
9.9 ± 0.1 µM	28.4 µM	18.7 to 34.6 µM	23 µM	262 to 263 °C	8.5 ± 0.6 µM	COc1ccc2ccc3c(c2c1)C(c1cccc(Cl)c1)C(C#N)=C(N)O3 (centres unmarked) [4c, 3-Amino-1–(3-chlorophenyl)-9-methoxy-1H-benzo[f]chromene-2-carbonitrile]	59.5 ± 1.1 µM	10.9 ± 0.2 µM	10.9 to 15.5 µM	26%	40%	70%	84%	61.5 ± 1.2 µM	11 ± 0.2 µM	–
1.9 ± 0.4 µM	–	13.5 µM	10.6 µM	257 to 258 °C	0.6 ± 0.2 µM	COc1ccc2ccc3c(c2c1)C(c1ccc(Cl)cc1)C(C#N)=C(N)O3 (centres unmarked) [4d, 3-Amino-1–(4-chlorophenyl)-9-methoxy-1H-benzo[f]chromene-2-carbonitrile]	77.1 ± 1.1 µM	12.5 ± 0.3 µM	10.9 to 15.5 µM	45%	60%	81%	91%	83 ± 1.1 µM	7.2 ± 0.1 µM	–

Further lines, the molecule ahead of its results:

SMILES	IC50 [3]	IC50 [4]	IC50 at 48 h [4]	IC50 [5]	melting point	IC50 [6]	IC50 [1]	IC50 [2]	IC50 [2, 10]	%Reduction of P-gp expression ([4]; Conc. 12.5 µM)	%Reduction of P-gp expression ([4]; Conc. 25 µM)	%Reduction of P-gp expression ([4]; Conc. 50 µM)	%Reduction of P-gp expression ([4]; Conc. 100 µM)	IC50 [7]	IC50 [8]	total apoptosis [9]
COc1ccc2ccc3c(c2c1)C(c1ccccc1Cl)C(C#N)=C(N)O3 (centres unmarked) [4b, 3-Amino-1–(2-chlorophenyl)-9-methoxy-1H-benzo[f]chromene-2-carbonitrile]	2.5 ± 0.2 µM	26.7 µM	18.7 to 34.6 µM	20.5 µM	266 to 267 °C	11.3 ± 0.1 µM	71.9 ± 0.1 µM	13.3 ± 0.5 µM	10.9 to 15.5 µM	30%	42%	72%	90%	66.7 ± 0.2 µM	10.7 ± 0.5 µM	–
COc1ccc2ccc3c(c2c1)C(c1ccc(F)cc1F)C(C#N)=C(N)O3 (centres unmarked) [4k, 3-Amino-1–(2,4-difluorophenyl)-9-methoxy-1H-benzo[f]chromene-2-carbonitrile]	4.1 ± 0.2 µM	–	61.4 µM	57.8 µM	255 to 256 °C	3 ± 0.3 µM	59.6 ± 0.1 µM	11.5 ± 0.6 µM	10.9 to 15.5 µM	12%	28%	45%	70%	47.3 ± 0.2 µM	8.2 ± 0.6 µM	–
COc1ccc2ccc3c(c2c1)C(c1ccc(OC)c(OC)c1)C(C#N)=C(N)O3 (centres unmarked) [4w, 3-Amino-1–(3,4-dimethoxyphenyl)-9-methoxy-1H-benzo[f]chromene-2-carbonitrile]	6.2 ± 0.3 µM	32.4 µM	18.7 to 34.6 µM	25.6 µM	253 to 255 °C	2.6 ± 0.5 µM	47.1 ± 0.2 µM	11.5 ± 0.6 µM	10.9 to 15.5 µM	24%	36%	68%	79%	52.9 ± 0.3 µM	52.3 ± 0.4 µM	–
COc1cccc2c1C(=O)c1c(O)c3c(c(O)c1C2=O)C[C@@](O)(C(=O)CO)C[C@@H]3O[C@H]1C[C@H](N)[C@H](O)[C@H](C)O1 [Doxorubicin, reference compound]	0.9 ± 0.02 µM	–	50.9 µM	–	–	0.8 ± 0.01 µM	–	–	–	–	–	–	–	–	1.7 ± 0.4 µM	30%

Source: paper PMC9869995, “Discovery of benzochromene derivatives first example with dual cytotoxic activity against the resistant cancer cell MCF-7/ADR and inhibitory effect of the P-glycoprotein expression levels” (Journal of Enzyme Inhibition and Medicinal Chemistry, 2023)
